The target of test [1] is c-MET (Homo sapiens, UniProt P08581). As to the kind of experiment: MET luminescence-based enzyme assay (Kinase-Glo). It is filed as biochemical. How it is done:
The subscript designates positive or negative controls. The Z′ score for a robust screening assay should be ≧0.50. The typical threshold=μ+−3*σ+. Any value that falls below the threshold was designated a “hit”.
MET Luminescence-Based Enzyme Assay
MET kinase (see below), Kinase-Glo™ (Promega Cat#V6712).
Negative controls contained 10 μM staurosporine.
A general note: Kinase-Glo measures the ATP left after a reaction by luminescence.

The target in test [2] is FRAP1 (mTOR) (Homo sapiens, UniProt P42345). Description: SelectScreen Kinase Profiling FRAP1. It is filed as biochemical. The source says:
(§1) SelectScreen™ is a trademark screening assay protocol for kinases developed by Invitrogen Corporation, Madison, Wis. Details on assay conditions can be found on the company's website.

Test [3] concerns the target MET (cMet) (Homo sapiens, UniProt P08581). As to the kind of experiment: SelectScreen Kinase Profiling MET. It counts as biochemical.
Source text: as §1

Test [4] has as its target PDGFRA T674I (Homo sapiens, UniProt P16234, T674I). As to the kind of experiment: SelectScreen Kinase Profiling PDGFRA T674I. It counts as biochemical.
Source text: as §1

Test [5] addresses FGFR3 (Homo sapiens, UniProt P22607). As to the kind of experiment: SelectScreen Kinase Profiling FGFR3. It is filed as biochemical.
Source text: as §1

For test [6], the target named is MET M1250T (Homo sapiens, UniProt P08581, M1250T). As to the kind of experiment: SelectScreen Kinase Profiling MET M1250T. It is filed as biochemical.
Source text: as §1

Test [7] has as its target KDR (VEGFR2) (Homo sapiens, UniProt P35968). Description: SelectScreen Kinase Profiling KDR. It counts as biochemical.
Source text: as §1

The target in test [8] is AKT1 (PKB alpha) (Homo sapiens, UniProt P31749). As to the kind of experiment: SelectScreen Kinase Profiling AKT1. It is filed as biochemical.
Source text: as §1

Test [9] deals with GTL16 tumors. As to the kind of experiment: GTL16 tumor xenograft model, tumor growth. It is filed as in vivo. The following applies: last day of treatment, nude mice. The procedure: Female athymic nude mice (nu/nu from Harlan) were 6-8 weeks old with a body weight range of 18-22 g at the beginning of the study. The animals had free access to food and water throughout the study. The mice were housed on irradiated Alpha-Dri® Bed-O-Cobs® Laboratory Animal Bedding in static micro isolator caging on a 12-hour light cycle at 70-74° F. and 40-60% humidity. All procedures involving animals were conducted in compliance with the NIH Guide for the Care and Use of Laboratory Animals and all protocols were approved by an Internal Animal Care and Use Committee (IACUC).
Xenografts were initiated from GTL-16 tumor cells cultured and maintained by an internal Cell Biology Department. Each test mouse received a subcutaneous injection of 4×10^6 cells suspended in 100 μL of serum free RPMI media. Tumors were randomized into treatment groups on Day 5 when the average tumor size reached approximately 150 mm^3. Each dose groups contained n=5 mice. Tumor volume was calculated using the formula:
[formula] where w=width and l=length in mm of the tumor. Tumor weight may be estimated with the assumption that 1 mg is equivalent to 1 mm^3 of tumor volume. Tumor Growth Inhibition (TGI) Analysis
TGI was calculated from the difference between the mean tumor volumes of vehicle-treated and drug-treated mice, expressed as a percentage. % TGI=Mean Tumor Volumecontrol−Mean Tumor Volumedrug-treated×100 […] Tumor Volumecontrol
The MTV is defined as the mean tumor volume (MTV) for the number of animals, n, remaining in the study on that day.

In test [10] the target is MERTK (cMER) (Homo sapiens, UniProt Q12866). As to the kind of experiment: SelectScreen Kinase Profiling MERTK. It counts as biochemical.
Source text: as §1

Test [11] deals with RET (Homo sapiens, UniProt P07949). As to the kind of experiment: SelectScreen Kinase Profiling RET. It counts as biochemical.
Source text: as §1

SMILES strings stand for the structures.

The record followed here is US8507489B2, “Bicyclic triazoles as protein kinase modulators” (SGX Pharmaceuticals, Inc., priority 2006, dated 2013).

Sequence of PDGFRA T674I (P16234 24-1089 T674I): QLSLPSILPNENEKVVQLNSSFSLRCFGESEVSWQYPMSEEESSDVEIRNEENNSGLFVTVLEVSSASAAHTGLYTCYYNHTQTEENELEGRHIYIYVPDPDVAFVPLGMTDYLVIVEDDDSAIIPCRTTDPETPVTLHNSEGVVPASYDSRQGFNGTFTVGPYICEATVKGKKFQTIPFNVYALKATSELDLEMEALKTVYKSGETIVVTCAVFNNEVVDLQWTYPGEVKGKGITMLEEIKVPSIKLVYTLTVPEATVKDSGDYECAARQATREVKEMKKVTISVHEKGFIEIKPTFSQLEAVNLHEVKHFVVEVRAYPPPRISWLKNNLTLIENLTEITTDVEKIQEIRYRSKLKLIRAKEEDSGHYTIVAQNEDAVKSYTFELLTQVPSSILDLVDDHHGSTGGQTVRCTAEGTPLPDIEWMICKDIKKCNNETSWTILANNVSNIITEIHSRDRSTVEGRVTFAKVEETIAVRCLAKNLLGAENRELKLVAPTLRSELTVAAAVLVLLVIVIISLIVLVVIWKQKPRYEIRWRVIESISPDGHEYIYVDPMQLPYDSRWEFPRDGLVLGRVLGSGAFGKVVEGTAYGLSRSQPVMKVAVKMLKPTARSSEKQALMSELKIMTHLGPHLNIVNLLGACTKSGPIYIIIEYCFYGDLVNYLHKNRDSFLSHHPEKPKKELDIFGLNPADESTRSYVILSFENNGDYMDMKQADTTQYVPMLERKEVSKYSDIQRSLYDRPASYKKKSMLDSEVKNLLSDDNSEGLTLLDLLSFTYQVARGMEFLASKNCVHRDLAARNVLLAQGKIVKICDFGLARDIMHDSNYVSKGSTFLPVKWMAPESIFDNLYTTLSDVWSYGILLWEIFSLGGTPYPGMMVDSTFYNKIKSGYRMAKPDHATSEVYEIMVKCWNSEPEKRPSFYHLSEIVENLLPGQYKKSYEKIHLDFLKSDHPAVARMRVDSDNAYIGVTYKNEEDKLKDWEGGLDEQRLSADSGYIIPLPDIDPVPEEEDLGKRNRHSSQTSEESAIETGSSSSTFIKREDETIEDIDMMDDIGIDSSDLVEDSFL
Sequence of RET (P07949 29-1114): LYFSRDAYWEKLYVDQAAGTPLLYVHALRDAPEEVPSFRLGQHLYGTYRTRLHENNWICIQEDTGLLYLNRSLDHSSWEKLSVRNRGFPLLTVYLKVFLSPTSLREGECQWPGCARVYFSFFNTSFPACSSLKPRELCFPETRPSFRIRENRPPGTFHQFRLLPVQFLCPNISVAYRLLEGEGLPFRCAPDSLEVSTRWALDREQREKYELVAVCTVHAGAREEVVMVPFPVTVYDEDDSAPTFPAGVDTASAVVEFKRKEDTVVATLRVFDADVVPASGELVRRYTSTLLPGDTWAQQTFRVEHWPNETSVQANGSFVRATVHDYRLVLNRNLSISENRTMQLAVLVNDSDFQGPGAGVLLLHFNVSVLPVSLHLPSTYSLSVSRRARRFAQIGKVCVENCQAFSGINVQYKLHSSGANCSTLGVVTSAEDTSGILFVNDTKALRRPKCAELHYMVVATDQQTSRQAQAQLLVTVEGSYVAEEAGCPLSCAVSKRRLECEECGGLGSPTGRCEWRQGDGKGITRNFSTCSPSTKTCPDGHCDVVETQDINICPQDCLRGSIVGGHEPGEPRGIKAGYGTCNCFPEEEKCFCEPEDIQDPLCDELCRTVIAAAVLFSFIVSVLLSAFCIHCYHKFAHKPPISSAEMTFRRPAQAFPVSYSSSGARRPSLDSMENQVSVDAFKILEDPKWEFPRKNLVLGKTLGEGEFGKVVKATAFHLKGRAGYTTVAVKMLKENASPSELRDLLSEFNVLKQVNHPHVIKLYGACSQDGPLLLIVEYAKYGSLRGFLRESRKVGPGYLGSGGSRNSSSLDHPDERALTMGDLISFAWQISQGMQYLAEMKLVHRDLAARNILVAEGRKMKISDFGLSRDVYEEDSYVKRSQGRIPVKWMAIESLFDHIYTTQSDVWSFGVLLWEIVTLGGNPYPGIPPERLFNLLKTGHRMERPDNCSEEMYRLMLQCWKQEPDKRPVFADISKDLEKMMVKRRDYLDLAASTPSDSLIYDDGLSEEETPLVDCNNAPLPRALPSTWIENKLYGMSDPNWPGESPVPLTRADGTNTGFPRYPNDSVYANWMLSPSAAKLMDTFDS
Sequence of MERTK (cMER) (Q12866 21-999): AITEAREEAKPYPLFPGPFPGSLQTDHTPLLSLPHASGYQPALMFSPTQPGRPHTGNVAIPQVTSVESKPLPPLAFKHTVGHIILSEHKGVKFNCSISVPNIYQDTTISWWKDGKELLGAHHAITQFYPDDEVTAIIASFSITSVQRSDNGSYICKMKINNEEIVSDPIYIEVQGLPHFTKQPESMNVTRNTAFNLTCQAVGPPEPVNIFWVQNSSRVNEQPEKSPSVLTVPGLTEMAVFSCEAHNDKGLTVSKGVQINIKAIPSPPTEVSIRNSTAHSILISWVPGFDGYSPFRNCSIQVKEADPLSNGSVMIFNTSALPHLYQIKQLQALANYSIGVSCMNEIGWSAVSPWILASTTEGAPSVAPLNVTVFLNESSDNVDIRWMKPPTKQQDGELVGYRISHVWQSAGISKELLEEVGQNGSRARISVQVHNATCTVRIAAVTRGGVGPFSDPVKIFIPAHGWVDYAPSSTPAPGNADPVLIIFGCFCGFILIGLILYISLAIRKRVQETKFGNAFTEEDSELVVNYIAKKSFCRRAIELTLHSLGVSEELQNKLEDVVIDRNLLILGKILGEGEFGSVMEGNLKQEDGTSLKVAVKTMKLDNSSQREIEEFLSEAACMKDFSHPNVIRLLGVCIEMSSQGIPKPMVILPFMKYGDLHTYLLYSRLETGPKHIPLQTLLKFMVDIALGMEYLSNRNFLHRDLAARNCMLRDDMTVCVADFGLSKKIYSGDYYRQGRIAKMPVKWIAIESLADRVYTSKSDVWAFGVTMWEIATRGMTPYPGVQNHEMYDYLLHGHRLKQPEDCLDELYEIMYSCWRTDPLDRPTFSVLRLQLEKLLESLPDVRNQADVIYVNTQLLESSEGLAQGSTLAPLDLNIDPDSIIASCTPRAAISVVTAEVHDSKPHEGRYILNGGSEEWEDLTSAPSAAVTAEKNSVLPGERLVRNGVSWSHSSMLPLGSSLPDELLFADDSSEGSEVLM
Sequence of AKT1 (PKB alpha) (P31749 whole entry): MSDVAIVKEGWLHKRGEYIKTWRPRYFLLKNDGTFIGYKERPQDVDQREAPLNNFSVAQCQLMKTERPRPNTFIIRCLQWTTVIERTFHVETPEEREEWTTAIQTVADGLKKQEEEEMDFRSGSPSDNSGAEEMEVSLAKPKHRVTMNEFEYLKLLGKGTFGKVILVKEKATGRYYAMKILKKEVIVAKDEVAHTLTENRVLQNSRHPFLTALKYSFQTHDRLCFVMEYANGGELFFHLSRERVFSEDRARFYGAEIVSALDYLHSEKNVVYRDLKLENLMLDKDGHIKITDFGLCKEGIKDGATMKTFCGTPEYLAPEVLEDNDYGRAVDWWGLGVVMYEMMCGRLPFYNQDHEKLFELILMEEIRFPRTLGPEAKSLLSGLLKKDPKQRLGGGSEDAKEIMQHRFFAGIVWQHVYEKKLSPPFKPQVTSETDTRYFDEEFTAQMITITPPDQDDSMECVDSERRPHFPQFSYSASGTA
Sequence of FGFR3 (P22607 23-806): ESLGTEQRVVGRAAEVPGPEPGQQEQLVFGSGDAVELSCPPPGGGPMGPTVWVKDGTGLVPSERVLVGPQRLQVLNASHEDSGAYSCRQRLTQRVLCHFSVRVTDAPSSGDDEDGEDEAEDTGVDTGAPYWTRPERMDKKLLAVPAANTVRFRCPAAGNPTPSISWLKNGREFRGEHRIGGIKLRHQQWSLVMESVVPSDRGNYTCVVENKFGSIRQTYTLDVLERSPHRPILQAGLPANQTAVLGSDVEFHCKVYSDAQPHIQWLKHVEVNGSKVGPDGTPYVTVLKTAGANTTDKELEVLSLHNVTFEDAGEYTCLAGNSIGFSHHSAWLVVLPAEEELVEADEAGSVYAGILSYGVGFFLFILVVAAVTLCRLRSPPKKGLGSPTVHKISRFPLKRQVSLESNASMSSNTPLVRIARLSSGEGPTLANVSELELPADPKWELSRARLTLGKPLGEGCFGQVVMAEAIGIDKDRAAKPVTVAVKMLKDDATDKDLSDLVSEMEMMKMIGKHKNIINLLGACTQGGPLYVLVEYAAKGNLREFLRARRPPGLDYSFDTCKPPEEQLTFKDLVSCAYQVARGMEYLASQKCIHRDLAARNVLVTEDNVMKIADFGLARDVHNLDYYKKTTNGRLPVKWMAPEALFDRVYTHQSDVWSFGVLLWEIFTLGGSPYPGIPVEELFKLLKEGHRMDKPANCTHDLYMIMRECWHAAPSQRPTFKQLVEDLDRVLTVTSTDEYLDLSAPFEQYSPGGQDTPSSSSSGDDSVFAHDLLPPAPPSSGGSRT
Sequence of c-MET (P08581 1078-1345 limits assumed): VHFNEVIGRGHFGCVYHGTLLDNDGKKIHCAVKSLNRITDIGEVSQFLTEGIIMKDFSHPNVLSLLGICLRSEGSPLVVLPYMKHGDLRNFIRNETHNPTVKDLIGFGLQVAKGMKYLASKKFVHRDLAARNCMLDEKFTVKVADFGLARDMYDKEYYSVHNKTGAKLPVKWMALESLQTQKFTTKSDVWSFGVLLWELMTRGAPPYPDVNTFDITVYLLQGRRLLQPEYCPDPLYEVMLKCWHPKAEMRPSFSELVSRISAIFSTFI

For `Cc1ccc2nnc(Sc3ccc4ncc(-c5cnn(C)c5)cc4c3)n2n1` [Compound 41, 3-(1-Methyl-1H-pyrazol-4-yl)-6-(6-methyl-[1,2,4]triazolo[4,3-b]pyridazin-3-ylsulfanyl)-quinoline], the IC50 (commonly the point on the concentration scale where inhibition reaches its midpoint) in [1] is under 100 nM. Besides, the inhibition (in general, the relative decrease from the control value, in per cent) at 1 µM in test [2] was 0%; in test [3] it was 98%; in [4], -1%; in test [5], 26%; in test [6] it was 89%; in [7], 16%. Besides, the figures for the inhibition at 1 µM in test [8], in test [10] and in test [11] were -1%, 10% and 21%, respectively. The “decrease of mean tumor volume compared to vehicle-treated group” value in test [9] (1 mg/kg PO Q12H, 13 consecutive days) amounted to 42%; in [9] (3 mg/kg PO Q12H, 13 consecutive days) it was 67%; in test [9] (10 mg/kg PO Q12H, 13 consecutive days), 80%; in test [9] (30 mg/kg PO Q12H, 13 consecutive days) it was 87%.
With `Cn1cc(-c2ccc3nnc(Sc4ccc5ncccc5c4)n3n2)cn1` [Compound 4, 6-[6-(1-Methyl-1H-pyrazol-4-yl)-[1,2,4]triazolo[4,3-b]pyridazin-3-ylsulfanyl]-quinoline], the inhibition at 1 µM in test [4] was -9%; in test [5], -4%; in test [8], 5%; in [10] it was 7%; in test [11] it was 5%. Moreover, the “decrease of mean tumor volume compared to vehicle-treated group” value in test [9] (10 mg/kg PO Q12H, 14 consecutive days) stood at 65%; in [9] (20 mg/kg PO Q12H, 14 consecutive days), 75%; in test [9] (30 mg/kg PO Q12H, 14 consecutive days) it was 81%; in test [9] (60 mg/kg PO Q24H, 14 consecutive days), 75%; in test [9] (100 mg/kg PO Q12H, 14 consecutive days) it was 87%.
